Results as given in patent US20240051952A1, “HMOX1 INDUCERS” (Mitobridge Inc., priority 2019, published 2024).

System: Human Heme Oxygenase-1 (HMOX-1)
Experiment: ELISA assay to measure human heme oxygenase-1 (HMOX-1) in HepG2 lysate
Type: cell-based
Settings: for Maximum Fold induction: fold change of human HMOX1 protein levels relative to DMSO control, HepG2
Protocol: Example 143. ELISA Assay to Measure Human Heme Oxygenase-1 (HMOX-1) in HepG2 lysate
Reagents and Technical Notes:
ELISA capture antibody, standard HO-1, detection antibody and streptavidin HRP were supplied in the DuoSet IC Human total HO-1 ELISA from R&D systems (DYC3776-2). The substrate cocktail was KPL LumiGLO reserve Chemiluminescent Substrate (54-71-00). PBS was Corning Cellgro Cell Culture (21-040-CV). 10×PBS+0.05% tween20 (PBST) was from KPL.
All incubations of the plate were at room temperature (20° C.) in a closed drawer.
The ELISA plate was processed manually. All loadings were with a multichannel pipet. Plates were emptied by shaking into the sink and tapping onto paper towels to remove any remaining reagent. Plate washing was accomplished by loading all wells with PBS+0.05% tween20 (PBST) using a squirt bottle, shaking the PBST out and tapping the plate onto paper towels.
Preparation of the ELISA Plate: • 1. anti-HO-1 capture antibody was 1440 μg/ml after reconstitution in PBS. This antibody was diluted to 8 μg/ml in PBS and 50 μl per well was added to a 384 well greiner “lumitrac 200” plate. Incubated overnight. • 2. The plate was emptied and 100 μl PBS+1% BSA added to all wells. Incubated 90 minutes at room temperature.
Preparation of HepG2 Lysate: • 1. Cells were cultured in a 96-well tissue culture plate washed with PBS and then the plate frozen at −70° C. overnight. Plates were allowed to warm to ice temperature in an ice bucket. 20 μl of PBS, 0.5% Triton X100, 1 mM EDTA with 1×HALT™ protease inhibitors was added to each well and the plates incubated on ice for 1 hour. • 2. The lysates were frozen at −20° C. overnight.
Measurement of HMOX1 (“HO-1”) • 1. In a polypropylene 384 well plate, human HO-1(after reconstitution in PBS+0.5% Triton+1 mM EDTA) was serially diluted from 20 ng/ml 2-fold in PBS+0.5% triton-X100, 1 mM EDTA to make a 12-point standard curve including a zero point. • 2. In a polypropylene 96 well plate, HepG2 lysate was diluted 1 to 20 in Diluent #4 from DUOSET kit in which the assay standard is also diluted. • 3. The PBS+1% BSA was emptied from the ELISA plate and 30 μl of all samples and standards were added (duplicates recommended). The plate was incubated 90 minutes. • 4. Emptied plate and washed 4 times with PBST. • 5. Diluted HO-1 detection antibody to 200 ng/ml in PBS+1% BSA and added 30 μl to all wells. Incubated 90 minutes. • 6. Emptied plate and washed 4 times with PBST. • 7. Added 30 μl streptavidin HRP at 1/200 in PBS+1% BSA (stock streptavidin concentration not specified) to all wells. Incubated 30 minutes. • 8. Emptied plate and washed 4 times with PBST. • 9. Diluted Lumiglo reserve reagent two parts buffer to one part lumiglo substrate. Added 30 μl to all wells. Incubated 5 minutes. • 10. Measured chemiluminescence on spectramax M5 using 150 ms integration.
Table 1 below lists EC50 and fold changes of human HMOX1 protein levels relative to DMSO control upon treatment with representative compounds.

## CC(C)C(N)C(=O)OCCOCCNC(=O)c1ccc2c(c1)nc(Nc1nc3ccccc3o1)n2C.Cl (racemic) [Example 30, 2-(2-(2-(benzo[d]oxazol-2-ylamino)-1-methyl-1H-benzo[d]imidazole-5-carboxamido)ethoxy)ethyl DL-valinate hydrochloride]
  Maximum Fold induction: 25-53

## Cn1c(Nc2nc3ccccc3o2)nc2cc(C(=O)O)ccc21 [Example 1h, 2-(benzo[d]oxazol-2-ylamino)-1-methyl-1H-benzo[d]imidazole-5-carboxylic acid]
  Maximum Fold induction: 7-38

## COCCNC(=O)c1ccc2c(c1)nc(Nc1nc3ccccc3o1)n2C [Example 1i, 2-(benzo[d]oxazol-2-ylamino)-N-(2-methoxyethyl)-1-methyl-1H-benzo[d]imidazole-5-carboxamide]
  Maximum Fold induction: 6-15

## O=C(O)c1ccc2c(c1)nc(Nc1nc3ccc(OC(F)(F)F)cc3s1)n2C1CCOCC1 [Example 2d, 1-(tetrahydro-2H-pyran-4-yl)-2-((6-(trifluoromethoxy)benzo[d]thiazol-2-yl)amino)-1H-benzo[d]imidazole-5-carboxylic acid]
  Maximum Fold induction: 10 (n = 2)

## COCCNC(=O)c1ccc2c(c1)nc(Nc1nc3ccc(OC(F)(F)F)cc3s1)n2C1CCOCC1 [Example 2e, N-(2-methoxyethyl)-1-(tetrahydro-2H-pyran-4-yl)-2-((6-(trifluoromethoxy)benzo[d]thiazol-2-yl)amino)-1H-benzo[d]imidazole-5-carboxamide]
  Maximum Fold induction: 20-33

## CN1CCC(n2c(Nc3nc4ccc(OC(F)(F)F)cc4s3)nc3cc(C(=O)O)ccc32)CC1 [Example 3d, 1-(1-methylpiperidin-4-yl)-2-((6-(trifluoromethoxy)benzo[d]thiazol-2-yl)amino)-1H-benzo[d]imidazole-5-carboxylic acid]
  Maximum Fold induction: 13

## COCCNC(=O)c1ccc2c(c1)nc(Nc1nc3ccc(OC(F)(F)F)cc3s1)n2C1CCN(C)CC1 [Example 3e, N-(2-methoxyethyl)-1-(1-methylpiperidin-4-yl)-2-((6-(trifluoromethoxy)benzo[d]thiazol-2-yl)amino)-1H-benzo[d]imidazole-5-carboxamide]
  Maximum Fold induction: 6-46

## CN1CCC(n2c(Nc3nc4ccc(OC(F)(F)F)cc4s3)nc3cc(C(=O)O)ccc32)C1 (centres unmarked) [Example 4d, 1-(1-methylpyrrolidin-3-yl)-2-((6-(trifluoromethoxy)benzo[d]thiazol-2-yl)amino)-1H-benzo[d]imidazole-5-carboxylic acid]
  Maximum Fold induction: 29-33

## COCCNC(=O)c1ccc2c(c1)nc(Nc1nc3ccc(OC(F)(F)F)cc3s1)n2C1CCN(C)C1 (centres unmarked) [Example 4e, N-(2-methoxyethyl)-1-(1-methylpyrrolidin-3-yl)-2-((6-(trifluoromethoxy)benzo[d]thiazol-2-yl)amino)-1H-benzo[d]imidazole-5-carboxamide]
  Maximum Fold induction: 19

## COCCNC(=O)c1ccc2c(c1)nc(Nc1nc3c(s1)CCCC3)n2C [Example 5, N-(2-methoxyethyl)-1-methyl-2-((4,5,6,7-tetrahydrobenzo[d]thiazol-2-yl)amino)-1H-benzo[d]imidazole-5-carboxamide]
  Maximum Fold induction: 7-12
Human HMOX1 protein in HepG2 lysate, ELISA, * = average of 2 or more EC50 determinations, NA = Not Active
  EC50: 1300 nM

## CC(=O)N1CCc2nc(Nc3nc4cc(C(=O)NCCOCCO)ccc4n3C)sc2C1 [Example 10, 2-((5-acetyl-4,5,6,7-tetrahydrothiazolo[5,4-c]pyridin-2-yl)amino)-N-(2-(2-hydroxyethoxy)ethyl)-1-methyl-1H-benzo[d]imidazole-5-carboxamide]
  Maximum Fold induction: 2

## COCCNC(=O)c1ccc2c(c1)nc(Nc1nc3c(s1)COCC3)n2C [Example 11, 2-((6,7-dihydro-4H-pyrano[4,3-d]thiazol-2-yl)amino)-N-(2-methoxyethyl)-1-methyl-1H-benzo[d]imidazole-5-carboxamide]
  Maximum Fold induction: 5

## COCCNC(=O)c1ccc2c(c1)nc(Nc1nc3ccccc3[nH]1)n2C [Example 12, 2-((1H-benzo[d]imidazol-2-yl)amino)-N-(2-methoxyethyl)-1-methyl-1H-benzo[d]imidazole-5-carboxamide]
  Maximum Fold induction: 5.5

## COCCNC(=O)c1ccc2c(c1)nc(Nc1nc3cc(OC(F)(F)F)ccc3[nH]1)n2C [Example 14, N-(2-methoxyethyl)-1-methyl-2-((5-(trifluoromethoxy)-1H-benzo[d]imidazol-2-yl)amino)-1H-benzo[d]imidazole-5-carboxamide]
  Maximum Fold induction: 6-25

## Cn1c(Nc2nc3cc(C(=O)O)ccc3n2C)nc2cc(OC(F)(F)F)ccc21 [Example 15, 1-methyl-2-((1-methyl-5-(trifluoromethoxy)-1H-benzo[d]imidazol-2-yl)amino)-1H-benzo[d]imidazole-5-carboxylic acid]
  Maximum Fold induction: 11-13

## Cn1c(Nc2nc3ccccc3o2)nc2cc(C(=O)NCCO)ccc21 [Example 16, 2-(benzo[d]oxazol-2-ylamino)-N-(2-hydroxyethyl)-1-methyl-1H-benzo[d]imidazole-5-carboxamide]
  Maximum Fold induction: 8-27

## Cl.Cn1c(Nc2nc3ccccc3o2)nc2cc(C(=O)NCCN)ccc21 [Example 18, N-(2-aminoethyl)-2-(benzo[d]oxazol-2-ylamino)-1-methyl-1H-benzo[d]imidazole-5-carboxamide hydrochloride]
  Maximum Fold induction: 41-52

## CN(C)CC(=O)NCCNC(=O)c1ccc2c(c1)nc(Nc1nc3ccccc3o1)n2C [Example 19, 2-(benzo[d]oxazol-2-ylamino)-N-(2-(2-(dimethylamino)acetamido)ethyl)-1-methyl-1H-benzo[d]imidazole-5-carboxamide]
  Maximum Fold induction: 14-26

## Cn1c(Nc2nc3ccccc3o2)nc2cc(C(=O)NCCN3CCOCC3)ccc21 [Example 20, 2-(benzo[d]oxazol-2-ylamino)-1-methyl-N-(2-morpholinoethyl)-1H-benzo[d]imidazole-5-carboxamide]
  Maximum Fold induction: 8

## CN(C)CCNC(=O)c1ccc2c(c1)nc(Nc1nc3ccccc3o1)n2C [Example 21, 2-(benzo[d]oxazol-2-ylamino)-N-(2-(dimethylamino)ethyl)-1-methyl-1H-benzo[d]imidazole-5-carboxamide]
  Maximum Fold induction: 14

## CC(O)CNC(=O)c1ccc2c(c1)nc(Nc1nc3ccccc3o1)n2C (centres unmarked) [Example 23, 2-(benzo[d]oxazol-2-ylamino)-N-(2-hydroxypropyl)-1-methyl-1H-benzo[d]imidazole-5-carboxamide]
  Maximum Fold induction: 25-61

## Cn1c(Nc2nc3ccccc3o2)nc2cc(C(=O)NCC(O)CO)ccc21 (centres unmarked) [Example 24, 2-(benzo[d]oxazol-2-ylamino)-N-(2,3-dihydroxypropyl)-1-methyl-1H-benzo[d]imidazole-5-carboxamide]
  Maximum Fold induction: 49

## CC(O)COCCNC(=O)c1ccc2c(c1)nc(Nc1nc3ccccc3o1)n2C (centres unmarked) [Example 25]
  Maximum Fold induction: 26

## Cn1c(Nc2nc3ccccc3o2)nc2cc(C(=O)NCC3(O)COC3)ccc21 [Example 26, 2-(benzo[d]oxazol-2-ylamino)-N-((3-hydroxyoxetan-3-yl)methyl)-1-methyl-1H-benzo[d]imidazole-5-carboxamide]
  Maximum Fold induction: 26

## Cn1c(Nc2nc3ccccc3o2)nc2cc(C(=O)NCCOCC(C)(C)O)ccc21 [Example 27, 2-(benzo[d]oxazol-2-ylamino)-N-(2-(2-hydroxy-2-methylpropoxy)ethyl)-1-methyl-1H-benzo[d]imidazole-5-carboxamide]
  Maximum Fold induction: 17
